Measurements: the supplement of paper PMC10307832

Experiments:
Assay in all cases: relative viability (nuclei count vs DMSO), 5 days (fraction); higher = more cells survive
Masitinib + Vorinostat = compound: Cc1ccc(NC(=O)c2ccc(CN3CCN(C)CC3)cc2)cc1Nc1nc(-c2cccnc2)cs1 [Masitinib] + O=C(CCCCCCC(=O)Nc1ccccc1)NO [Vorinostat] (partner 1 µM)
Outline: (§1)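 The day after seeding in 1536-well plates, lung cancer cell lines were treated by pin tool with a single drug, or with a fixed anchor-drug dose together with five library-drug doses (not always all listed) in √10 steps. After 5 days, a combined fix-and-stain solution (final 0.05% Triton X-100, 1% formaldehyde, 1 ug/ml Hoechst) was added. Nuclei counted on 4× images gave relative viability as treated counts over vehicle counts, reported as the median of duplicate plates.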

Masitinib + Palbociclib = compound: Cc1ccc(NC(=O)c2ccc(CN3CCN(C)CC3)cc2)cc1Nc1nc(-c2cccnc2)cs1 [Masitinib] + CC(=O)c1c(C)c2cnc(Nc3ccc(N4CCNCC4)cn3)nc2n(C2CCCC2)c1=O [Palbociclib] (partner 0.5 µM)
Outline: as §1

Masitinib + Trametinib = compound: Cc1ccc(NC(=O)c2ccc(CN3CCN(C)CC3)cc2)cc1Nc1nc(-c2cccnc2)cs1 [Masitinib] + CC(=O)Nc1cccc(-n2c(=O)n(C3CC3)c(=O)c3c(Nc4ccc(I)cc4F)n(C)c(=O)c(C)c32)c1 [Trametinib] (partner 0.02 µM)
Outline: as §1

[1] = compound: CC1=CC(=CC=C1)NC2=NC(=CS2)C3=CC=NC=C3 + C[C@@H](Oc1cc(-c2cnn(C3CCNCC3)c2)cnc1N)c1c(Cl)ccc(F)c1Cl [Crizotinib] (partner 1 µM)
Outline: as §1

Question: How did the relative viability (Masitinib + Vorinostat; first compound 0.01 µM) turn out when UMC-11 was run?
Answer: 0.314

Question: And the relative viability (Masitinib + Vorinostat; first compound 0.03162 µM)?
Answer: 0.342

Question: And the relative viability (Masitinib + Vorinostat; first compound 0.1 µM)?
Answer: 0.375

Question: And the relative viability (Masitinib + Vorinostat; first compound 0.3162 µM)?
Answer: 0.366

Question: What about the relative viability (Masitinib + Vorinostat; first compound 1 µM) of the same cell line?
Answer: 0.359

Question: What about the relative viability (Masitinib + Palbociclib; first compound 0.01 µM) of the same cell line?
Answer: 0.323

Question: What about the relative viability (Masitinib + Palbociclib; first compound 0.03162 µM) of the same cell line?
Answer: 0.384

Question: And the relative viability (Masitinib + Palbociclib; first compound 0.1 µM)?
Answer: 0.319

Question: What about the relative viability (Masitinib + Palbociclib; first compound 0.3162 µM) of the same cell line?
Answer: 0.351

Question: And the relative viability (Masitinib + Palbociclib; first compound 1 µM)?
Answer: 0.304

Question: What about the relative viability (Masitinib + Trametinib; first compound 0.01 µM) of the same cell line?
Answer: 0.431

Question: What about the relative viability (Masitinib + Trametinib; first compound 0.03162 µM) of the same cell line?
Answer: 0.588

Question: What about the relative viability (Masitinib + Trametinib; first compound 0.1 µM) of the same cell line?
Answer: 0.617

Question: What about the relative viability (Masitinib + Trametinib; first compound 0.3162 µM) of the same cell line?
Answer: 0.627

Question: And the relative viability (Masitinib + Trametinib; first compound 1 µM)?
Answer: 0.804

Question: What about the relative viability ([1]; first compound 0.08 µM) of the same cell line?
Answer: 0.602

Question: And the relative viability ([1]; first compound 0.253 µM)?
Answer: 0.582

Question: What about the relative viability ([1]; first compound 0.8 µM) of the same cell line?
Answer: 0.544

Question: What about the relative viability ([1]; first compound 2.53 µM) of the same cell line?
Answer: 0.579

Question: What about the relative viability ([1]; first compound 8 µM) of the same cell line?
Answer: 0.72
